Assay results taken from patent publication US20240307415A1, “STEROID COMPOUND, AND PHARMACEUTICAL COMPOSITION THEREOF AND USE THEREOF” (JIANGSU SIMCERE PHARMACEUTICAL CO., LTD., priority 2021, published 2024).
pEC50: −log10 of the molar value. Like-named read-outs stand apart in the source and are kept apart here.

Key:
CHS mouse model = experiment: Efficacy test in CHS mouse model (FITC sensitization, right ear thickness); format: in vivo, C57BL/6N mice; conditions: 3 μg/mouse
Method: Construction of CHS mouse model: 6- to 8-week-old female C57BL/6N mice (Beijing Vital River Laboratory Animal Technology Co., Ltd.) were selected, and all mice were shaved off abdominal hair using a small animal hair clipper. 400 μL of the sensitizer was pipetted with a micropipette and applied evenly to the abdomen of the mice for epidermal sensitization. After application, the mice were held for 3-5 s and the solvent was allowed to evaporate from the skin as clean as possible. The specific preparation method for the sensitizer was: 0.5 g of FITC (fluorescein isothiocyanate; sigma-Aldrich) powder was weighed and fully dissolved in a solvent of 50 mL of acetone (SinoPharm reagent) and 50 mL of DBP (dibutyl phthalate; sigma-Aldrich) in equal proportion to give the sensitizer with the FITC content of 0.5%. On the 6th day after sensitization, the thickness of the right ear of the mice was measured with a dial thickness gauge as a baseline value, then a freshly prepared sensitizer was pipetted with a micropipette and applied evenly inside and outside of the right ear of the mice respectively for epidermal stimulation, and 10 μL of the sensitizer was applied on each side. 24 h after stimulation, the thickness of the right ear of the mice was measured again with a dial thickness gauge to obtain the thickness change of the right ear of the mice, A thickness of right ear=(thickness of right ear 24 h after stimulation)−(baseline value of thickness of right ear).
Therapeutic regimen for CHS model mouse: mice were divided into a blank group, a negative control group, a positive control group, and an experimental group. […] The drug was administered by one-time intraperitoneal injection 1 h before the right ear epidermal stimulation.

K562-GRE reporter gene = K562-GRE reporter gene activity; format: cell-based; conditions: read-out: K562-GRE Reporter EC50
Method: To generate the parental K562-GRE cell line, K562 cells were seeded at 5×10^5 cells/well onto a 6-well plate (brand: Costar, Cat. No: 3516) containing 2 mL of complete medium (RPM1640, 10% FBS, penicillin-streptomycin) and cultured at 37° C. with 5% CO2 for 24 h. The next day, 3 μg of pNL2.2[NLucP/MMTV/Hygro-NANO] (Promega) and 3 μL of PLUS reagent (brand: Invitrogen, Cat. No: 11514-015) were diluted in 150 μL of Opti-MEM (brand: Gibco, Cat. No: 11058021) and incubated at room temperature for 5 min. The pNL2.2[NLucP/MMTV/Hygro-NANO] vector contains MMTV LTR (mouse mammary tumor virus long terminal repeat), which drives transcription of the luciferase reporter gene NanoLuc in response to activation of several nuclear receptors (e.g. glucocorticoid receptor and androgen receptor). After incubation, the diluted DNA solution was mixed with Lipofectamine LTX solution (brand: Invitrogen, Cat. No: 15338-100) (6 μL of Lipofectamine LTX+144 μL of Opti-MEM) in a 1:1 ratio, pre-incubated, and incubated at room temperature for 15 min to form a DNA-Lipofectamine LTX complex. After incubation, 300 μL of the DNA-Lipofectamine complex was added directly to the cell wells. The K562 cells were transfected at 37° C. with 5% CO2 for 24 h. After transfection, the cells were washed with 3 mL of PBS and selectively grown for two weeks with complete growth medium containing 125 μg/mL hygromycin B (brand: Invitrogen, Cat. No: 10687010). “K562-GRE (pNL2.2[NLucP/MMTV/Hygro-NANO])” cells were generated.
After mixing, the cells were cultured in an incubator at 37° C. for 24 h. After 24 h of incubation, an equal volume of 100 μL of Nano-Glo luciferase assay system (brand: Promega, Cat. No: N1120) was added to the cells, the mixture was reacted in a shaker at […] for 10 min, and the chemiluminescence values were detected using the PHERAstar instrument. The antibody binding curves were plotted using the logarithmic value of the antibody concentration as the abscissa and the corresponding chemiluminescence reading as the ordinate, and the EC50 value was calculated by four-parameter fitting (GraphPad Prism9).

[1] = target: Glucocorticoid Receptor GR (Homo sapiens (Human), UniProt P04150); experiment: Binding activity to glucocorticoid receptor GR (Polarscreen fluorescence polarization kit); conditions: GR full length, 2 h
Glucocorticoid Receptor GR, sequence (P04150 whole entry): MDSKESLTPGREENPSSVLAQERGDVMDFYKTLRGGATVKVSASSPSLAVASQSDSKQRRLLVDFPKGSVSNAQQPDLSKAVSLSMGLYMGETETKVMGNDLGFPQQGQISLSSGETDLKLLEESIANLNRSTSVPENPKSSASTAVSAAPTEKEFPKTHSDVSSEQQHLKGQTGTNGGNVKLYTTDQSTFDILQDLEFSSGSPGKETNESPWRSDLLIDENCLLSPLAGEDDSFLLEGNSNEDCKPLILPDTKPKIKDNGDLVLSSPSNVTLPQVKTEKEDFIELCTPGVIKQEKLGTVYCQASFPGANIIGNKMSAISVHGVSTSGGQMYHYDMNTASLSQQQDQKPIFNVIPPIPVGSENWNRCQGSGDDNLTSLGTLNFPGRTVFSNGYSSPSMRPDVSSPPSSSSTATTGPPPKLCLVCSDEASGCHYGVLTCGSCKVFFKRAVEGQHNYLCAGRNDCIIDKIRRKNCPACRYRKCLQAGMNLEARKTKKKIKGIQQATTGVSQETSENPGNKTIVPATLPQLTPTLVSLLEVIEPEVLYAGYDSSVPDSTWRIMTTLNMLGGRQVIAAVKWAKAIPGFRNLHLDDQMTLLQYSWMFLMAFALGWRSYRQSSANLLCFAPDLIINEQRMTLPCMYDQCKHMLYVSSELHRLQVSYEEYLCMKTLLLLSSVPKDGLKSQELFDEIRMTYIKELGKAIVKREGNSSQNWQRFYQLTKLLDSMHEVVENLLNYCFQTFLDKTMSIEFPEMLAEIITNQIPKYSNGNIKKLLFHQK
Method: The binding activity of the compound to GR was determined using the Polarscreen Glucocorticoid Receptor Assay Kit, Red (brand: Thermo, Cat. No: A15898). […] The highest concentration was 100 μM, 8 concentrations in total. […] With the log value of the final concentration of the compound as the X axis and the mP value as the Y axis, data was input into the processing software Graphpad Prism 9, and the EC50 value was calculated by four-parameter fitting

[2] = K562-GRE cells, 24 h incubation, NanoLuc luciferase

## C[C@]12C=CC(=O)C=C1CC[C@@H]1[C@@H]2[C@@H](O)C[C@@]2(C)[C@H]1C[C@H]1O[C@@H](c3ccc(Cc4ccc(N)c5c4CCO5)cc3)O[C@]12C(=O)CO [Compound 001, (6aR,6bS,7S,8aS,8bS,10R,11aR,12aS,12bS)-10-(4-((7-amino-2,3-dihydrobenzofuran-4-yl)methyl)phenyl)-7-hydroxy-8b-(2-hydroxyacetyl)-6a,8a-dimethyl-6a,6b,7,8,8a,8b,11a,12,12a,12b-decahydro-1H-naphtho[2′,1′:4,5]indeno[1,2-d][1,3]dioxolan-4(2H)-one]
CHS mouse model; one-time intraperitoneal injection 1 h before right ear stimulation, measured 24 h after stimulation
  thickness of the right ear in CHS mice compared to the negative control group: significant decrease
CHS mouse model; one-time intraperitoneal injection, CHS mice, right ear thickness
  efficacy compared with positive reference compound a at the same dose: superior in efficacy to the positive reference compound a
K562-GRE reporter gene; 24 h
  pEC50: 8.46
[1]
  pEC50: 7.88

## C[C@]12C=CC(=O)C=C1CC[C@@H]1[C@@H]2[C@@H](O)C[C@@]2(C)[C@H]1C[C@H]1O[C@@H](c3ccc(Cc4ccc5nc[nH]c5c4)cc3)O[C@]12C(=O)CO [Compound 002, (6aR,6bS,7S,8aS,8bS,10R,11aR,12aS,12bS)-10-(4-((1H-benzo[d]imidazol-6-yl)methyl)phenyl)-7-hydroxy-8b-(2-hydroxyacetyl)-6a,8a-dimethyl-6a,6b,7,8,8a,8b,11a,12,12a,12b-decahydro-1H-naphtho[2′,1′:4,5]indeno[1,2-d][1,3]dioxolan-4(2H)-one]
K562-GRE reporter gene; [2]
  pEC50: 8.05

## C[C@]12C=CC(=O)C=C1CC[C@@H]1[C@@H]2[C@@H](O)C[C@@]2(C)[C@H]1C[C@H]1O[C@@H](c3ccc(Cc4ccc5cc[nH]c5c4)cc3)O[C@]12C(=O)CO [Compound 003, (6aR,6bS,7S,8aS,8bS,10R,11aR,12aS,12bS)-10-(4-((1H-indol-6-yl)methyl)phenyl)-7-hydroxy-8b-(2-hydroxyacetyl)-6a,8a-dimethyl-6a,6b,7,8,8a,8b,11a,12,12a,12b-decahydro-1H-naphtho[2′,1′:4,5]indeno[1,2-d][1,3]dioxolan-4(2H)-one]
K562-GRE reporter gene; [2]
  pEC50: 8.42

## C[C@]12C=CC(=O)C=C1CC[C@@H]1[C@@H]2[C@@H](O)C[C@@]2(C)[C@H]1C[C@H]1O[C@@H](c3ccc(Cc4ccc5c(c4)NCC5)cc3)O[C@]12C(=O)CO [Compound 004, (6aR,6bS,7S,8aS,8bS,10R,11aR,12aS,12bS)-7-hydroxy-8b-(2-hydroxyacetyl)-10-(4-(indolin-6-ylmethyl)phenyl)-6a,8a-dimethyl-6a,6b,7,8,8a,8b,11a,12,12a,12b-decahydro-1H-naphtho[2′,1′:4,5]indeno[1,2-d][1,3]dioxolan-4(2H)-one]
K562-GRE reporter gene; 24 h
  pEC50: 8.12
[1]
  pEC50: 7.37

## C[C@]12C=CC(=O)C=C1CC[C@@H]1[C@@H]2[C@@H](O)C[C@@]2(C)[C@H]1C[C@H]1O[C@@H](c3ccc(Cc4ccc5c(c4)OCCN5)cc3)O[C@]12C(=O)CO [Compound 005, (6aR,6bS,7S,8aS,8bS,10R,11aR,12aS,12bS)-10-(4-((3,4-dihydro-2H-benzo[b][1,4]oxazin-7-yl)methyl)phenyl)-7-hydroxy-8b-(2-hydroxyacetyl)-6a,8a-dimethyl-1,2,6a,6b,7,8,8a,8b,11a,12,12a,12b-decahydro-1H-naphtho[2′,1′:4,5]indeno[1,2-d][1,3]dioxolan-4(2H)-one]
K562-GRE reporter gene; [2]
  pEC50: 8.25

## C[C@]12C=CC(=O)C=C1[C@@H](F)C[C@H]1[C@@H]3C[C@H]4O[C@@H](c5ccc(Cc6ccc7c(c6)OCCN7)cc5)O[C@@]4(C(=O)CO)[C@@]3(C)C[C@H](O)[C@@]12F [Compound 006, (2S,6aS,6bR,7S,8aS,8bS,10R,11aR,12aS,12bS)-10-(4-((3,4-dihydro-2H-benzo[b][1,4]oxazin-7-yl)methyl)phenyl)-2,6b-difluoro-7-hydroxy-8b-(2-hydroxyacetyl)-6a,8a-dimethyl-6a,6b,7,8,8a,8b,11a,12,12a,12b-decahydro-1H-naphtho[2′,1′:4,5]indeno[1,2-d][1,3]dioxolan-4(2H)-one]
K562-GRE reporter gene; 24 h
  pEC50: 8.77

## C[C@]12C=CC(=O)C=C1CC[C@@H]1[C@@H]2[C@@H](O)C[C@@]2(C)[C@H]1C[C@H]1O[C@@H](c3ccc(Cc4ccc(N)c5ncoc45)cc3)O[C@]12C(=O)CO [Compound 007, (6aR,6bS,7S,8aS,8bS,10R,11aR,12aS,12bS)-10-(4-((4-aminobenzo[d]oxazol-7-yl)methyl)phenyl)-7-hydroxy-8b-(2-hydroxyacetyl)-6a,8a-dimethyl-6a,6b,7,8,8a,8b,11a,12,12a,12b-decahydro-1H-naphtho[2′,1′:4,5]indeno[1,2d][1,3]dioxolan-4(2H)-one]
K562-GRE reporter gene; 24 h
  pEC50: 8.68
[1]
  pEC50: 7.77

## C[C@]12C=CC(=O)C=C1CC[C@@H]1[C@@H]2[C@@H](O)C[C@@]2(C)[C@H]1C[C@H]1O[C@@H](c3ccc(Cc4ccc(N)c5c4OCO5)cc3)O[C@]12C(=O)CO [Compound 008, (6aR,6bS,7S,8aS,8bS,10R,11 aR,12aS,12bS)-10-(4-((7-aminobenzo[d][1,3]dioxolan-4-yl)methyl)phenyl)-7-hydroxy-8b-(2-hydroxyacetyl)-6a,8a-dimethyl-6a,6b,7,8,8a,8b,11a,12,12a,12b-decahydro-1H-naphtho[2′,1′:4,5]indeno[1,2-d][1,3]dioxolan-4(2H)-one]
K562-GRE reporter gene; [2]
  pEC50: 8.11

## C[C@]12C=CC(=O)C=C1[C@@H](F)C[C@H]1[C@@H]3C[C@H]4O[C@@H](c5ccc(Cc6ccc(N)c7c6CCO7)cc5)O[C@@]4(C(=O)CO)[C@@]3(C)C[C@H](O)[C@@]12F [Compound 010, (2S,6aS,6bR,7S,8aS,8bS,10R,11aR,12aS,12bS)-10-(4-((7-amino-2,3-dihydrobenzofuran-4-yl)methyl)phenyl)-2,6b-difluoro-7-hydroxy-8b-(2-hydroxyacetyl)-6a,8a-dimethyl-6a,6b,7,8,8a,8b,11a,12,12a,12b-decahydro-1H-naphtho[2′,1′:4,5]indeno[1,2-d][1,3]dioxolan-4(2H)-one]
K562-GRE reporter gene; 24 h
  pEC50: 8.97

## C[C@]12C=CC(=O)C=C1CC[C@@H]1[C@@H]2[C@@H](O)C[C@@]2(C)[C@H]1C[C@H]1O[C@@H](c3ccc(Cc4ccc(N)c5c4CCC5)cc3)O[C@]12C(=O)CO [Compound 011, (6aR,6bS,7S,8aS,8bS,10R,11aR,12aS,12bS)-10-(4-((7-amino-2,3-dihydro-1H-inden-4-yl)methyl)phenyl)-7-hydroxy-8b-(2-hydroxyacetyl)-6a,8a-dimethyl-6a,6b,7,8,8a,8b,11a,12,12a,12b-decahydro-1H-naphtho[2′,1′:4,5]indeno[1,2-d][1,3]dioxolan-4(2H)-one]
K562-GRE reporter gene; [2]
  pEC50: 8.37

## CC12C=CC(=O)C=C1CCC1C2C(O)CC2(C)C1CC1OC(c3ccc(Cc4cc(N)cc5c4CCO5)cc3)OC12C(=O)CO [Compound 012, (6aR,6bS,7S,8aS,8bS,10R,11aR,12aS,12bS)-10-(4-((6-amino-2,3-dihydrobenzofuran-4-yl)methyl)phenyl)-7-hydroxy-8b-(2-hydroxyacetyl)-6a,8a-dimethyl-6a,6b,7,8,8a,8b,11a,12,12a,12b-decahydro-1H-naphtho[2′,1′:4,5]indeno[1,2-d][1,3]dioxolan-4(2H)-one]
K562-GRE reporter gene; [2]
  pEC50: 8.02
